{"source": "paper PMC12040169", "about": "(PLOS Biology, 2025)", "data": [{"assay": "in vitro", "settings": "human, hela cells, % viability", "units": {"viability at 28.5 h, 10 µM": "%"}, "values": [{"smiles": "Cc1cc(OC(C)C(=O)Nc2ncccc2C)ccc1Cl", "note": "(stereo not drawn) [CBK269637]", "viability at 28.5 h, 10 µM": 78.4}, {"smiles": "c1ccc(CSc2ncnc3c2oc2ccccc23)cc1", "note": "[CBK287398]", "viability at 28.5 h, 10 µM": 103}, {"smiles": "CS(=O)(=O)Nc1nnc(SCC(=O)Nc2cccc([N+](=O)[O-])c2)s1", "note": "[CBK045536]", "viability at 28.5 h, 10 µM": 102}, {"smiles": "Cc1cccc(-c2ncc(C(=O)NCCc3c[nH]cn3)cc2-c2ccncc2)c1", "note": "[CBK036678]", "viability at 28.5 h, 10 µM": 86.9}, {"smiles": "O=C(O)C1CCCCC1C(=O)Nc1cccc2ccccc12", "note": "(stereo not drawn) [CBK261569]", "viability at 28.5 h, 10 µM": 101}, {"smiles": "CN(C)CCCN(Cc1ccc2ncccc2c1)Cc1ccco1", "note": "[CBK283197]", "viability at 28.5 h, 10 µM": 112}, {"smiles": "COc1ccc(CCNC(=S)N2CCN(c3ccccn3)CC2)cc1OC", "note": "[CBK266897]", "viability at 28.5 h, 10 µM": 94.5}, {"smiles": "NC(CCC(=O)O)C(=O)O", "note": "(stereo not drawn) [CBK260875C]", "viability at 28.5 h, 10 µM": 97.3}, {"smiles": "CC(C)C1C(=O)Nc2ccccc2N1C(=O)NCCC(=O)O", "note": "(stereo not drawn) [CBK286659]", "viability at 28.5 h, 10 µM": 87.4}, {"smiles": "CC1=NNC(=S)NC(C)(C)C1", "note": "[CBK021597]", "viability at 28.5 h, 10 µM": 120}, {"smiles": "Cc1cc2ccccc2n2c(=O)n(CC(=O)N3CCC(C)CC3)nc12", "note": "[CBK283881]", "viability at 28.5 h, 10 µM": 92.7}, {"smiles": "CCNS(=O)(=O)c1ccc(NS(=O)(=O)c2cc(C(=O)O)ccc2C)cc1", "note": "[CBK295296]", "viability at 28.5 h, 10 µM": 82.8}, {"smiles": "CCOC(=O)C1CCCN(Cc2ccc(OC)cc2)C1", "note": "(stereo not drawn) [CBK304413]", "viability at 28.5 h, 10 µM": 88.3}, {"smiles": "Cc1noc(C)c1C(=O)Nc1ccc(S(=O)(=O)NCCc2ccccc2)cc1", "note": "[CBK268183]", "viability at 28.5 h, 10 µM": 92.8}, {"smiles": "CCOC(=O)N1CCC(NS(=O)(=O)c2ccc3c(c2)oc(=O)n3C)CC1", "note": "[CBK304666]", "viability at 28.5 h, 10 µM": 84.5}, {"smiles": "Cc1ccc(NC(=O)C2CN(S(=O)(=O)c3ccccc3)CCN2S(=O)(=O)c2ccccc2)c(C)c1", "note": "(stereo not drawn) [CBK262693]", "viability at 28.5 h, 10 µM": 83.8}, {"smiles": "CC1Cc2cc(CC(=O)N(C)CC(F)(F)F)ccc2O1", "note": "(stereo not drawn) [CBK283067]", "viability at 28.5 h, 10 µM": 109}, {"smiles": "CCCn1ncc(CN2CCCC(c3cc4cccnc4[nH]3)C2)c1C", "note": "(stereo not drawn) [CBK284957]", "viability at 28.5 h, 10 µM": 95.1}, {"smiles": "COC(C(=O)N(C)C)C(OC)C(=O)N(C)C", "note": "(stereo not drawn) [CBK005447]", "viability at 28.5 h, 10 µM": 111}, {"smiles": "CCCN1C[C@@H](O)C[C@H]2[C@H](O)[C@@H]1c1ccccc1N2C(=O)OC", "note": "[CBK007809]", "viability at 28.5 h, 10 µM": 91.8}, {"smiles": "COCCNC(=O)c1cc(-c2ccc(Cl)cc2)cnc1NS(C)(=O)=O", "note": "[CBK106421]", "viability at 28.5 h, 10 µM": 94.4}, {"smiles": "CCOc1ccc(OCC)c(S(=O)(=O)n2nc(C)cc2C)c1", "note": "[CBK264024]", "viability at 28.5 h, 10 µM": 94.6}, {"smiles": "O=C(N/N=C\\C=C\\c1ccco1)c1ccc([N+](=O)[O-])cc1", "note": "[CBK261961]", "viability at 28.5 h, 10 µM": 102}, {"smiles": "CCOC(=O)c1sc2nc(C(C)N3CCCCC3)[nH]c(=O)c2c1C", "note": "(stereo not drawn) [CBK306078]", "viability at 28.5 h, 10 µM": 111}, {"smiles": "Cc1ccc(CNc2cc(C)ccn2)cc1", "note": "[CBK005419]", "viability at 28.5 h, 10 µM": 106}, {"smiles": "Cc1nn(C)c(C)c1S(=O)(=O)n1ccn(-c2ccc(N(C)C)cc2)c1=O", "note": "[CBK106610]", "viability at 28.5 h, 10 µM": 93}, {"smiles": "Cc1ccc(CN(Cc2cncn2C)CC2CCCO2)o1", "note": "(stereo not drawn) [CBK283272]", "viability at 28.5 h, 10 µM": 93.2}, {"smiles": "OC1(CN2CCCC2)COCCN(c2nnc(-c3ccccc3)s2)C1", "note": "(stereo not drawn) [CBK306558]", "viability at 28.5 h, 10 µM": 97.5}, {"smiles": "O=C(N/N=C/c1cccc(Oc2ccccc2)c1)c1ccncc1", "note": "[CBK261955]", "viability at 28.5 h, 10 µM": 95.6}, {"smiles": "CN1CCCC1CCOc1ncccc1OCc1ccccc1", "note": "(stereo not drawn) [CBK036313]", "viability at 28.5 h, 10 µM": 93.1}, {"smiles": "CC(=O)Nc1nc(NC(C)=O)n(-c2ccccc2)n1", "note": "[CBK287938]", "viability at 28.5 h, 10 µM": 86}, {"smiles": "CCC(NS(=O)(=O)c1ccc(Br)cc1)C(=O)O", "note": "(stereo not drawn) [CBK264472]", "viability at 28.5 h, 10 µM": 97}, {"smiles": "C=CCNS(=O)(=O)c1ccc(NC(=O)Cc2cccc3ccccc23)cc1", "note": "[CBK269379]", "viability at 28.5 h, 10 µM": 109}, {"smiles": "COc1ccccc1C1NC(=O)COC12CCN(Cc1ccccc1)CC2", "note": "(stereo not drawn) [CBK092265]", "viability at 28.5 h, 10 µM": 109}, {"smiles": "Cc1cc(-c2cc(C)n[nH]2)[nH]n1", "note": "[CBK262079]", "viability at 28.5 h, 10 µM": 107}, {"smiles": "NCC(=O)Nc1ccc(Br)cc1C(=O)c1ccccc1Cl", "note": "[CBK264692B]", "viability at 28.5 h, 10 µM": 90.5}, {"smiles": "COCC1CN(C(=O)Nc2nnc(Cc3ccc(C)cc3)s2)CCO1", "note": "(stereo not drawn) [CBK306278]", "viability at 28.5 h, 10 µM": 83.3}, {"smiles": "O=C(NCC1CCCO1)NC(=O)c1nsc2ccccc12", "note": "(stereo not drawn) [CBK019827]", "viability at 28.5 h, 10 µM": 113}, {"smiles": "COc1ccc([C@@]23CC[C@H](NC(=O)Nc4ccc(F)c(F)c4)C[C@@H]2N(Cc2ccccc2)CC3)cc1OC", "note": "[CBK041333T]", "viability at 28.5 h, 10 µM": 94.5}, {"smiles": "COC(=O)c1ccccc1NC(=O)CSc1nc(C)cc(C(F)(F)F)n1", "note": "[CBK268682]", "viability at 28.5 h, 10 µM": 89.1}, {"smiles": "NC(=O)c1cc(-c2ccccc2)sc1NC(=O)C(Cc1ccccc1)N1C(=O)c2ccccc2C1=O", "note": "(stereo not drawn) [CBK265843]", "viability at 28.5 h, 10 µM": 104}, {"smiles": "O=C(NCCc1ccccc1)c1cc(Br)cnc1NCCCn1ccnc1", "note": "[CBK076421]", "viability at 28.5 h, 10 µM": 103}, {"smiles": "COc1ccc(C(C)c2cc3c(cc2O)OCO3)cc1", "note": "(stereo not drawn) [CBK200100]", "viability at 28.5 h, 10 µM": 90.3}, {"smiles": "CCn1c(SCC(=O)Nc2ccc(N3CCOCC3)cc2)nnc1-c1ccncc1", "note": "[CBK269765]", "viability at 28.5 h, 10 µM": 89.7}, {"smiles": "CCOC(=O)c1sc(Cl)nc1C(F)(F)F", "note": "[CBK026746]", "viability at 28.5 h, 10 µM": 103}]}]}
